pIC50: −log10 of the molar value.
Target: T1, full-length human PRMT3 isoform 1 (GST-tagged) (Homo sapiens, UniProt O60678)
T1 construct: GST-tagged PRMT3; made in house; host or cells: E. coli BL21(DE3) Gold
Test: PRMT3 Biochemical Assay (3H-SAM Flashplate, peptide substrate)
Settings: single experiment or average of multiple experiments
Text: General Materials. S-adenosylmethionine (SAM), S-adenosylhomocysteine (SAH), bicine, Tween20, dimethylsulfoxide (DMSO), bovine skin gelatin (BSG),), isopropyl-β-D-thiogalactopyranoside (IPTG), and Tris(2-carboxyethyl)phosphine hydrochloride solution (TCEP) were purchased from Sigma-Aldrich at the highest level of purity possible. ^3H-SAM was purchase from American Radiolabeled Chemicals with a specific activity of 80 Ci/mmol. 384-well streptavidin Flashplates were purchased from PerkinElmer.
Substrates. Peptide containing the classic RMT substrate motif was synthesized with an N-terminal linker-affinity tag motif and a C-terminal amide cap by 21st Century Biochemicals. The peptide was purified by high-performance liquid chromatography (HPLC) to greater than 95% purity and confirmed by liquid chromatography mass spectrometry (LC-MS). The sequence was Biot-Ahx-[…]-amide (SEQ ID NO.:11).
Molecular Biology: Full-length human PRMT3 (NM_005788.3) isoform 1 transcript clone was amplified from an HEK 293 cDNA library and subcloned into pGEX-KG (GE Life Sciences). The resulting construct encodes an N-terminal GST tag and a thrombin cleavage sequence ([…] […] […] […] S) (SEQ ID NO.:12) fused directly to Cys 2 of PRMT3.
Protein Expression. E. coli (BL21(DE3) Gold, Stratagene) made competent by the CaCl2) method were transformed with the PRMT3 construct and ampicillin selection. Protein over-expression was accomplished by growing the PRMT3 expressing E. coli clone and inducing expression with 0.3 mM IPTG at 16° C. The culture was grown for 12 hours, harvested by centrifugation, and stored at −80° C. for purification.
Protein Purification. […] GST-tagged PRMT3 was eluted with 50 mM Tris, 2 mM glutathione, pH 7.1 and 50 mM Tris, 20 mM glutathione, pH 7.1. Pooled fractions were dialysed in 20 mM Tris, 50 mM NaCl, 5% glycerol, 1 mM EDTA, 1 mM DTT, pH7.5 (Buffer B) and applied to a Q Sepharose Fast Flow column. GST-tagged PRMT3 was eluted by 500 mM NaCl in buffer B. Pooled fractions were dialyzed in 25 mM phosphate buffer, 100 mM NaCl, 5% glycerol, 2 mM DTT, pH 6.8 (Buffer C) and loaded on to a ceramic hydroxyapatite column. GST-tagged PRMT3 eluted with 25-400 mM phosphate in buffer C. Protein was concentrated and buffer was exchanged to 20 mM Tris, 150 mM NaCl, 5% glycerol, 5 mM β-mercaptoethanol, pH7.8 by ultrafiltration. The purity of recovered protein was 70%.
General Procedure for PRMT3 Enzyme Assays on Peptide Substrates. The assays were all performed in a buffer consisting of 20 mM Bicine (pH=7.6), 1 mM TCEP, 0.005% BSG, and 0.002% Tween 20, prepared on the day of use. Compounds in 100% DMSO (1 ul) were spotted into a polypropylene 384-well V-bottom plates (Greiner) using a Platemate Plus outfitted with a 384-channel head (Thermo Scientific). DMSO (1 ul) was added to Columns 11, 12, 23, 24, rows A-H for the maximum signal control and 1 ul of SAH, a known product and inhibitor of PRMT3, was added to columns 11, 12, 23, 24, rows I-P for the minimum signal control. A cocktail (40 ul) containing the PRMT3 enzyme was added by Multidrop Combi (Thermo-Fisher). The compounds were allowed to incubate with PRMT3 for 30 min at room temperature, then a cocktail (10 ul) containing SAM and peptide was added to initiate the reaction (final volume=51 ul). The final concentrations of the components were as follows: PRMT3 was 0.5 nM, ^3H-SAM was 100 nM, non-radiolabeled SAM was 1.8 uM, peptide was 330 nM, SAH in the minimum signal control wells was 1 mM, and the DMSO concentration was 2%. The assays were stopped by the addition of potassium chloride (10 ul) to a final concentration of 100 mM. 50 ul of the reaction in the 384-well polypropylene plate was then transferred to a 384-well Flashplate and the biotinylated peptides were allowed to bind to the streptavidin surface for at least 1 hour before being washed once with 0.1% Tween20 in a Biotek ELx405 plate washer. […]

T1 sequence (O60678 with tags, fused parts or gaps): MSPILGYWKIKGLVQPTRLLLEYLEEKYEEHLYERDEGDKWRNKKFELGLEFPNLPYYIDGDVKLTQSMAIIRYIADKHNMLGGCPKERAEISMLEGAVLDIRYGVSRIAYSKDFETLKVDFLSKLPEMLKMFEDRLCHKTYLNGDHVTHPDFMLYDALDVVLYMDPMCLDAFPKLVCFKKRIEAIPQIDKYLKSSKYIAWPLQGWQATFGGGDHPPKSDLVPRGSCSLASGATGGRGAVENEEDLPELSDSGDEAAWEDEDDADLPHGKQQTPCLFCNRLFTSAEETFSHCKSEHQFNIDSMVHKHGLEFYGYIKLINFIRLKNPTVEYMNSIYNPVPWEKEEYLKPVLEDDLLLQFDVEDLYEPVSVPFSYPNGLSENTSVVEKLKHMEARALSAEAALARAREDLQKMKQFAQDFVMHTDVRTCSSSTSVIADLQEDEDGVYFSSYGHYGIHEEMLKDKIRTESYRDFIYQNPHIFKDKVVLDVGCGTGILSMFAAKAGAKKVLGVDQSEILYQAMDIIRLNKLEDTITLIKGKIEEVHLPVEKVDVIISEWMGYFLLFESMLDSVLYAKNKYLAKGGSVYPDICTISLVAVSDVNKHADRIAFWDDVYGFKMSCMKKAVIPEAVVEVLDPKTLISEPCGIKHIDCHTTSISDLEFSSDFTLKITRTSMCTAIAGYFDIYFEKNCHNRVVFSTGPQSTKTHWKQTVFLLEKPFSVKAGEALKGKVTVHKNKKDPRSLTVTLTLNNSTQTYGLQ

pIC50: 5.03
SMILES: CNCCN(C)Cc1c[nH]nc1C#Cc1ccccc1 [Compound 3]

From patent US11512053B2, “Arginine methyltransferase inhibitors and uses thereof” (priority 2013, dated 2022)
